Reference: PMC11257039, “VCP activator reverses nuclear proteostasis defects and enhances TDP-43 aggregate clearance in multisystem proteinopathy models” (The Journal of Clinical Investigation, 2024)
“And” between values parts separate entries of the source, which are not always exact repeats. Equal entries are not always repeated. “Also recorded” adds a separate entry of the source.

Assays:
[1] = target: T1, recombinant WT VCP (Mus musculus, UniProt Q01853); experiment: Kinase-Glo ATPase assay, recombinant WT VCP; assay type: biochemical; conditions: for ATP consumed: WT VCP no UN
T1 construct: in the full-length recombinant VCP; His (N); made in house; host or cells: Escherichia coli BL21-CodonPlus (DE3)-RIL
T1 sequence (Q01853 whole entry): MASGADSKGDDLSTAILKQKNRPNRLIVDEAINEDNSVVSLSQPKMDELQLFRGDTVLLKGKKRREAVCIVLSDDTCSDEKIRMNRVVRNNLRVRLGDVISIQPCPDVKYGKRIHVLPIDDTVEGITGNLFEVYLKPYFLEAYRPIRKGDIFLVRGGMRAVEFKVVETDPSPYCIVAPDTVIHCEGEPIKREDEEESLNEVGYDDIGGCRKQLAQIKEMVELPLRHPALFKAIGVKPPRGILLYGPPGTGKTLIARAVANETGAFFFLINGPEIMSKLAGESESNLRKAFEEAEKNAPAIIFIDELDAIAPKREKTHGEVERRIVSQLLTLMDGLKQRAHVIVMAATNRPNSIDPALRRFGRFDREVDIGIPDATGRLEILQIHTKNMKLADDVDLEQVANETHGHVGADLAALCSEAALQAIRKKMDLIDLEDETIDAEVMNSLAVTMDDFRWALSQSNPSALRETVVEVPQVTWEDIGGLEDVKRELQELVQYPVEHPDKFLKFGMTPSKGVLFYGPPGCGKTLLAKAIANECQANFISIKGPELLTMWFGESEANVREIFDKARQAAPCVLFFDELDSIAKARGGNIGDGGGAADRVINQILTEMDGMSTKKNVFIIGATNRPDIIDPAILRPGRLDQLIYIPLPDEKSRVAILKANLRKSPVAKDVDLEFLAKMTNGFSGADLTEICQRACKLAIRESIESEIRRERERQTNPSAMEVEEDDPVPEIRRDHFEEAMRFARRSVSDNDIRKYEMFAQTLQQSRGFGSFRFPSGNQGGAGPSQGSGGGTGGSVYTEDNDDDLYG
Procedure: (§1) Experiments with varied activator concentration and screening were measured using the Kinase-Glo Luminescent Kinase Assay (Promega). Reactions were incubated at 25°C for 1 hour then reduced to 4°C in a thermocycler consisting of 50 nM of recombinant VCP with or without 50 nM UFD1/NPLOC4 in 50 uL ATPase buffer (25 mM HEPES, pH 7.5, 100 mM NaCl, 10 mM MgCl2) at 2% DMSO with 62.5 μM ATP and a range of activator concentrations (Gibco, Sigma-Aldrich). Equal volumes of reaction and Kinase-Glo reagent were incubated for 20 minutes at room temperature in a 96 well white flat bottom plate (Corning). Luminescence was measured in a microplate reader (Spark 20M, Tecan).
(§2) Experiments with varied compound concentration were fit to a 3-parameter dose curve with asymmetric profile likelihood 95% confidence intervals in GraphPad Prism 9 (GraphPad). Experiments with varied ATP concentration were fit to a Michaelis-Menten model with asymmetric profile likelihood 95% confidence intervals. Significance was determined for experiments with fixed compound or fixed ATP concentration using a linear mixed-effects model.

[2] = target: T2, WT VCP + Ufd1/Nploc4 (Mus musculus, UniProt Q01853); experiment: Kinase-Glo ATPase assay, WT VCP with UFD1/NPLOC4 (UN); assay type: biochemical; conditions: for ATP consumed: WT VCP with UN
T2 construct: in the full-length recombinant VCP; His (N); made in house; host or cells: E. coli (VCP: BL21-CodonPlus (DE3)-RIL; UFD1 and NPLOC4: E. coli (DE3), purified by the MD Anderson core)
T2 sequence (Q01853 whole entry): as above
T2 sequence (Q92890 whole entry partner): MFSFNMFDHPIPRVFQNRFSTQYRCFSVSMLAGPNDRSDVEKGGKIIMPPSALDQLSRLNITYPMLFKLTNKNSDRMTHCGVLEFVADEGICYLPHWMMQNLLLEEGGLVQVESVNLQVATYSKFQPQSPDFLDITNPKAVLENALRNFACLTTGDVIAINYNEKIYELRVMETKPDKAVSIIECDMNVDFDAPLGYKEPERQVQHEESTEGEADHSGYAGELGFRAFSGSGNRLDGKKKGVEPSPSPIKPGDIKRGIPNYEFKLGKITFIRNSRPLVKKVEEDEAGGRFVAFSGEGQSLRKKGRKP
T2 sequence (Q8TAT6 whole entry partner): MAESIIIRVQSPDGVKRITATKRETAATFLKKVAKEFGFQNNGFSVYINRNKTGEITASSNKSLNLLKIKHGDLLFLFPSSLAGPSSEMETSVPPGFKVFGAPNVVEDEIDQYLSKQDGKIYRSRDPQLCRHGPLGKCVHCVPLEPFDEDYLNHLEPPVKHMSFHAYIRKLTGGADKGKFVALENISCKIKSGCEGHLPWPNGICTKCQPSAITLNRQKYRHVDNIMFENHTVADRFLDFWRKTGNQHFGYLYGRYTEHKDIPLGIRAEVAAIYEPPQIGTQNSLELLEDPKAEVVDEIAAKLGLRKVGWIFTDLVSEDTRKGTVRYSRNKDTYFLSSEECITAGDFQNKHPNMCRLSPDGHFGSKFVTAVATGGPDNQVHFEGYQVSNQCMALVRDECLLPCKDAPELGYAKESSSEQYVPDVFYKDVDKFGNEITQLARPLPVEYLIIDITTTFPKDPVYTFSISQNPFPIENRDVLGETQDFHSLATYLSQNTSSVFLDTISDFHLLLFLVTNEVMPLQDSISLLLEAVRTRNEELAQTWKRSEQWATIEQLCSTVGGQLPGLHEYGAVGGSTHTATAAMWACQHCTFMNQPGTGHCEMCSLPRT
Procedure: as §1, §2

[3] = target: T1, recombinant WT VCP; experiment: MESG-PNP (EnzCheck) phosphate release ATPase assay, WT VCP; assay type: biochemical; conditions: for ATPase activity v0/ET: 25 μM compound, replicate experiments
Procedure: (§3) All other experiments were performed using the EnzCheck phosphatase assay kit (Molecular Probes). ATPase activity was measured in a 96-well flat bottom plate (Thermo Fisher Scientific). 50 nM VCP was incubated in 100 μL ATPase buffer with 2% DMSO with 25 μM compound and various ATP concentrations. The absorbance at 360 ± 5 nm was measured for more than 15 minutes at 25°C. Phosphate release was quantified based on a phosphate standard curve performed on the same plate. Initial enzyme velocity was determined by fitting the linear portion of the data to a linear regression model.
as §2

[4] = system: 26S proteasome; experiment: 26S proteasome activity, Suc-LLVY-AMC fluorescence; assay type: biochemical, human; conditions: 25 μM compound, versus 1% DMSO
Procedure: 26S proteasome and substrate suc-LLVY-AMC were purchased (LifeSensors, Inc.). Fluorescence was measured in a microplate reader using a 96-well optical bottom black plate (Thermo Fisher Scientific). […] 26S proteasome was incubated in 100 μL proteasome buffer (20 mM HEPES, pH 7.5, 0.5 mM EDTA, 0.05% Triton-X) with 100 μM suc-LLVY-AMC, 1 mM ATP, and 25 μM compound or 1% DMSO. Fluorescence was measured at excitation 380 ± 10nm and emission 460 ± 10nm for more than 15 minutes at 37°C. Initial velocity was determined by fitting the linear portion of the data to a linear regression model. Significance was determined for using a linear mixed-effects model.

[5] = system: WT HeLa cells expressing GFP-TDP-4FL; experiment: Flow cytometry of GFP-TDP-4FL integrated fluorescence, WT HeLa; assay type: cell-based; conditions: for Integrated Fluorescence WT (Normalized to CHX): replicate values
Procedure: Drug treatments were performed on neurons 7 days after lentiviral transduction and 14 days after neuronal induction. HeLa cells were collected using trypsin and pelleted at 1000g for 3 minutes. Cell pellets were resuspended in colorless DMEM (Invitrogen) supplemented with 2% FBS and filtered through a BD tube with cell strainer (BD Biosciences) for flow cytometry analysis on LSR II (BD Biosciences). Data analysis was performed on FlowJo v10 software. Integrated fluorescence intensity was determined by multiplying percent positive GFP and GFP median fluorescence values.

[6] = system: luciferase; experiment: Luciferase counter assay: Kinase-Glo with 62.5 μM ATP without recombinant VCP; assay type: biochemical; conditions: for measured ATP consumed (nmol) without VCP: replicate values
Procedure: as §1
(A-D) Measured ATP as determined by a Kinase-Glo assay of 62.5μM ATP in the presence of increasing concentrations of compound without recombinant VCP present. (for all panels: n=3 with 4 technical replicates per experiment, points are expressed as beta ± SE, linear mixed effects model, P>0.05 for each […]
(1 picture or pasted object on this page, not shown here)

[7] = target: T3, A232E VCP (Mus musculus, UniProt Q01853, A232E); experiment: MESG-PNP ATPase assay, recombinant A232E VCP; assay type: biochemical; conditions: VCP Mutation A232E; replicate values
T3 construct: in the full-length recombinant VCP; His (N); made in house; host or cells: Escherichia coli BL21-CodonPlus (DE3)-RIL
T3 sequence (Q01853 whole entry A232E): as the sequence (Q01853 whole entry) above, with A232E counted along it
Procedure: as §3
(§4) Figure S8. VCP activators variable effect on ATPase activity of MSP associated mutations in recombinant VCP. ATPase activity of 50 nM recombinant VCP protein was measured using an MESG-PNP assay upon treatment with 25 μM compound versus 2% DMSO control at 1mM ATP for WT (also shown in Fig. 5c), A232E, R155H, and R159H (n=3 with 3 technical replicated per experiment; points are expressed as beta ± SE, linear effects model: *P<0.05,**P<0.01; ***P<0.001; ****P<0.0001).

[8] = target: T4, R155H VCP (Mus musculus, UniProt Q01853, R155H); experiment: MESG-PNP ATPase assay, recombinant R155H VCP; assay type: biochemical; conditions: VCP Mutation R155H; replicate values
T4 construct: in the full-length recombinant VCP; His (N); made in house; host or cells: Escherichia coli BL21-CodonPlus (DE3)-RIL
T4 sequence (Q01853 whole entry R155H): as the sequence (Q01853 whole entry) above, with R155H counted along it
Procedure: as §3, §4

[9] = target: T5, R159H VCP (Mus musculus, UniProt Q01853, R159H); experiment: MESG-PNP ATPase assay, recombinant R159H VCP; assay type: biochemical; conditions: VCP Mutation R159H; replicate values
T5 construct: in the full-length recombinant VCP; His (N); made in house; host or cells: Escherichia coli BL21-CodonPlus (DE3)-RIL
T5 sequence (Q01853 whole entry R159H): as the sequence (Q01853 whole entry) above, with R159H counted along it
Procedure: as §3, §4

O=C(OCCN(C1=NS(=O)(=O)c2ccccc21)c1ccc(Cl)cc1)c1ccco1 [UP163]
EC50 ([1]; EC50 (μM) (95% CI), WT VCP without UN, 50 nM VCP, 62.5 μM ATP, 2% DMSO): 9 µM
ATP consumed ([1]; 1.56 μM compound): 0.996 nmol and 1.192 nmol and 1.605 nmol
ATP consumed ([1]; 3.13 μM compound): 0.935 nmol and 1.312 nmol and 1.332 nmol
ATP consumed ([1]; 6.25 μM compound): 1.040 nmol and 1.494 nmol and 1.616 nmol
ATP consumed ([1]; 12.5 μM compound): 1.105 nmol and 1.570 nmol and 1.588 nmol
ATP consumed ([1]; 25 μM compound): 1.206 nmol and 1.717 nmol and 1.792 nmol
ATP consumed ([1]; 50 μM compound): 1.416 nmol and 2.232 nmol and 2.160 nmol
ATP consumed ([1]; 100 μM compound): 1.546 nmol and 2.072 nmol and 2.521 nmol
ATP consumed ([1]; 200 μM compound): 1.557 nmol and 2.138 nmol and 2.227 nmol
recombinant WT VCP ATPase activity ([1]; in vitro validation of 106 screen hits): significantly increased
increase of VCP activity ([1]; maximum, WT VCP without UN): 104%
change in EC50 with UN compared to without UN [2]: no change in EC50
change in maximum percent activity with UN compared to without UN [2]: significantly decreased
EC50 ([2]; WT VCP + Ufd1/Nploc4, 1:1 molar ratio): 8.9 µM
ATP consumed ([2]; 1.56 μM compound): 1.198 nmol and 1.183 nmol and 1.402 nmol
ATP consumed ([2]; 3.13 μM compound): 1.366 nmol and 1.295 nmol and 1.519 nmol
ATP consumed ([2]; 6.25 μM compound): 1.504 nmol and 1.416 nmol and 1.656 nmol
ATP consumed ([2]; 12.5 μM compound): 1.666 nmol and 1.564 nmol and 1.799 nmol
ATP consumed ([2]; 25 μM compound): 1.783 nmol and 1.641 nmol and 1.890 nmol
ATP consumed ([2]; 50 μM compound): 1.844 nmol and 1.710 nmol and 1.941 nmol
ATP consumed ([2]; 100 μM compound): 1.839 nmol and 1.775 nmol and 1.995 nmol
ATP consumed ([2]; 200 μM compound): 1.798 nmol and 1.691 nmol and 2.001 nmol
kcat (nmol Pi / nmol VCP / s) (95% CI) ([3]; 25 μM activator): 0.366 (0.335, 0.401) nmol Pi / nmol VCP / s
increase in kcat ([3]; 25 μM activator, versus DMSO): more than 50%
ATPase activity v0/ET ([3]; [ATP] 62.5 μM): 0.201 nmol Pi / nmol VCP / s and 0.212 nmol Pi / nmol VCP / s and 0.198 nmol Pi / nmol VCP / s
ATPase activity v0/ET ([3]; [ATP] 125 μM): 0.260 nmol Pi / nmol VCP / s and 0.250 nmol Pi / nmol VCP / s and 0.255 nmol Pi / nmol VCP / s
ATPase activity v0/ET ([3]; [ATP] 250 μM): 0.300 nmol Pi / nmol VCP / s and 0.288 nmol Pi / nmol VCP / s and 0.278 nmol Pi / nmol VCP / s
ATPase activity v0/ET ([3]; [ATP] 500 μM): 0.335 nmol Pi / nmol VCP / s and 0.312 nmol Pi / nmol VCP / s and 0.331 nmol Pi / nmol VCP / s
ATPase activity v0/ET ([3]; [ATP] 1000 μM): 0.366 nmol Pi / nmol VCP / s and 0.351 nmol Pi / nmol VCP / s and 0.360 nmol Pi / nmol VCP / s
% activity of 26S proteasome [4]: 101.6% and 88.7% and 86.5% and 112.7% and 93.3% and 91.5%
Integrated Fluorescence WT (Normalized to CHX) ([5]; 5μM compound with CHX): 1.026 and 0.947 and 1.013 and 0.859 and 0.810
Integrated Fluorescence WT (Normalized to CHX) ([5]; 20μM compound with CHX): 0.921 and 1.001 and 0.939 and 1.006 and 0.777 and 0.710
clearance of GFP-TDP-4FL aggregates (integrated fluorescence) ([5]; MG132, then CHX with 5 or 20 μM activator): enhances clearance of TDP-4FL inclusions; also recorded: slightly enhanced clearance
luciferase activity (measured ATP without VCP) ([6]; 62.5 μM ATP, increasing concentrations of compound): did not inhibit luciferase activity
measured ATP consumed (nmol) without VCP ([6]; compound 6.25 μM): 3.139 nmol and 3.185 nmol and 3.132 nmol and 3.341 nmol and 3.220 nmol and 3.273 nmol and 3.147 nmol and 3.064 nmol and 3.275 nmol and 3.208 nmol and 3.040 nmol and 3.045 nmol
measured ATP consumed (nmol) without VCP ([6]; compound 12.5 μM): 3.118 nmol and 3.105 nmol and 3.142 nmol and 3.139 nmol and 3.279 nmol and 3.429 nmol and 3.221 nmol and 3.237 nmol and 3.278 nmol and 3.379 nmol and 3.331 nmol and 3.029 nmol
measured ATP consumed (nmol) without VCP ([6]; compound 25 μM): 3.141 nmol and 3.208 nmol and 3.280 nmol and 3.310 nmol and 3.135 nmol and 3.015 nmol and 3.257 nmol and 3.266 nmol and 3.329 nmol and 3.083 nmol and 3.153 nmol
measured ATP consumed (nmol) without VCP ([6]; compound 50 μM): 3.191 nmol and 3.073 nmol and 3.250 nmol and 3.386 nmol and 3.272 nmol and 3.113 nmol and 3.202 nmol and 3.171 nmol and 3.209 nmol and 3.373 nmol and 3.530 nmol and 3.028 nmol
measured ATP consumed (nmol) without VCP ([6]; compound 100 μM): 3.232 nmol and 3.235 nmol and 3.017 nmol and 3.209 nmol and 3.245 nmol and 3.024 nmol and 3.264 nmol and 3.329 nmol and 3.427 nmol and 3.000 nmol and 3.076 nmol
measured ATP consumed (nmol) without VCP ([6]; compound 200 μM): 3.190 nmol (2×) and 3.291 nmol and 3.314 nmol and 3.330 nmol and 3.165 nmol and 3.125 nmol and 3.456 nmol and 3.010 nmol and 3.038 nmol and 3.261 nmol and 3.272 nmol
ATPase activity, nmol Pi / nmol VCP / s [7]: 0.830 nmol Pi / nmol VCP / s and 0.637 nmol Pi / nmol VCP / s and 0.764 nmol Pi / nmol VCP / s
ATPase activity, nmol Pi / nmol VCP / s [8]: 0.759 nmol Pi / nmol VCP / s and 0.647 nmol Pi / nmol VCP / s and 0.706 nmol Pi / nmol VCP / s
ATPase activity, nmol Pi / nmol VCP / s [9]: 0.812 nmol Pi / nmol VCP / s and 0.873 nmol Pi / nmol VCP / s and 0.726 nmol Pi / nmol VCP / s
